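Where inhibition never reached the appropriate level, the endpoint shown equals the highest concentration tested. Otherwise, values were interpolated linearly from a five-concentration, 48-hour dose response in 96-well plates. The concentration for 50% growth inhibition is given as GI50. TGI denotes the concentration required for complete inhibition of growth.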
Tests used:
Experiment in all cases: NCI anticancer screen, dose series, 48 h
786-0 renal = test system: 786-0 renal
A498 renal = test system: A498 renal
A549 NSCLC = test system: A549 NSCLC
ACHN renal = test system: ACHN renal
BT-549 breast = test system: BT-549 breast
CAKI-1 renal = test system: CAKI-1 renal
CCRF-CEM leukemia = test system: CCRF-CEM leukemia
COLO 205 colon = test system: COLO 205 colon
DU-145 prostate = test system: DU-145 prostate
EKVX NSCLC = test system: EKVX NSCLC
HCC-2998 colon = test system: HCC-2998 colon
HCT-116 colon = test system: HCT-116 colon
HCT-15 colon = test system: HCT-15 colon
HOP-62 NSCLC = test system: HOP-62 NSCLC
HOP-92 NSCLC = test system: HOP-92 NSCLC
HS 578T breast = test system: HS 578T breast
HT29 colon = test system: HT29 colon
IGROV1 ovarian = test system: IGROV1 ovarian
KM12 colon = test system: KM12 colon
LOX IMVI melanoma = test system: LOX IMVI melanoma
M14 melanoma = test system: M14 melanoma
MALME-3M melanoma = test system: MALME-3M melanoma
MCF7 breast = test system: MCF7 breast
MDA-MB-231 breast = test system: MDA-MB-231 breast
MDA-MB-435 = test system: MDA-MB-435
MOLT-4 leukemia = test system: MOLT-4 leukemia
NCI-H226 lung = test system: NCI-H226 lung
NCI-H23 lung = test system: NCI-H23 lung
NCI-H460 lung = test system: NCI-H460 lung
NCI-H522 lung = test system: NCI-H522 lung
NCI/ADR-RES ovarian = test system: NCI/ADR-RES ovarian
OVCAR-3 ovarian = test system: OVCAR-3 ovarian
OVCAR-4 ovarian = test system: OVCAR-4 ovarian
OVCAR-5 ovarian = test system: OVCAR-5 ovarian
OVCAR-8 ovarian = test system: OVCAR-8 ovarian
PC-3 prostate = test system: PC-3 prostate
RPMI-8226 leukemia = test system: RPMI-8226 leukemia
RXF 393 renal = test system: RXF 393 renal
SF-268 CNS = test system: SF-268 CNS
SF-295 CNS = test system: SF-295 CNS
SF-539 CNS = test system: SF-539 CNS
SK-MEL-2 melanoma = test system: SK-MEL-2 melanoma
SK-MEL-28 melanoma = test system: SK-MEL-28 melanoma
SK-MEL-5 melanoma = test system: SK-MEL-5 melanoma
SK-OV-3 ovarian = test system: SK-OV-3 ovarian
SN12C renal = test system: SN12C renal
SNB-19 CNS = test system: SNB-19 CNS
SNB-75 CNS = test system: SNB-75 CNS
SR leukemia = test system: SR leukemia
SW-620 colon = test system: SW-620 colon
T-47D breast = test system: T-47D breast
TK-10 renal = test system: TK-10 renal
U251 CNS = test system: U251 CNS
UACC-257 melanoma = test system: UACC-257 melanoma
UACC-62 melanoma = test system: UACC-62 melanoma
UO-31 renal = test system: UO-31 renal

## N#Cc1c(N)nc(NCc2ccccc2)c(C#N)c1-c1ccccc1Cl
786-0 renal
  GI50: 13.4 µM
  TGI: 36.2 µM
A498 renal
  GI50: 19.2 µM
  TGI: 46.9 µM
A549 NSCLC
  GI50: 21.3 µM
  TGI: > 100 µM
ACHN renal
  GI50: 5.73 µM
  TGI: 62.7 µM
BT-549 breast
  GI50: 16.7 µM
  TGI: 53.9 µM
CAKI-1 renal
  GI50: 14.6 µM
  TGI: > 100 µM
CCRF-CEM leukemia
  GI50: 15.2 µM
  TGI: 45.5 µM
COLO 205 colon
  GI50: 74 µM
  TGI: > 100 µM
DU-145 prostate
  GI50: 21.5 µM
  TGI: 88.6 µM
EKVX NSCLC
  GI50: 24.4 µM
  TGI: 85.3 µM
HCC-2998 colon
  GI50: > 100 µM
  TGI: > 100 µM
HCT-116 colon
  GI50: 16.3 µM
  TGI: > 100 µM
HCT-15 colon
  GI50: > 100 µM
  TGI: > 100 µM
HOP-62 NSCLC
  GI50: 4.47 µM
  TGI: 18 µM
HOP-92 NSCLC
  GI50: 3.57 µM
  TGI: 25.5 µM
HS 578T breast
  GI50: 11.3 µM
  TGI: 43 µM
HT29 colon
  GI50: 73.4 µM
  TGI: > 100 µM
IGROV1 ovarian
  GI50: 5.08 µM
  TGI: 41.1 µM
KM12 colon
  GI50: 47 µM
  TGI: > 100 µM
LOX IMVI melanoma
  GI50: 4.75 µM
  TGI: 35.9 µM
M14 melanoma
  GI50: 23.2 µM
  TGI: > 100 µM
MALME-3M melanoma
  GI50: 21 µM
  TGI: 90.2 µM
MCF7 breast
  GI50: 20 µM
  TGI: > 100 µM
MDA-MB-231 breast
  GI50: 5.76 µM
  TGI: 33.8 µM
MDA-MB-435
  GI50: 21.8 µM
  TGI: > 100 µM
MOLT-4 leukemia
  GI50: 26.8 µM
  TGI: > 100 µM
NCI-H226 lung
  GI50: 2.39 µM
  TGI: 14.5 µM
NCI-H23 lung
  GI50: 17.5 µM
  TGI: > 100 µM
NCI-H460 lung
  GI50: 4.99 µM
  TGI: 30.1 µM
NCI-H522 lung
  GI50: 12.6 µM
  TGI: 55 µM
NCI/ADR-RES ovarian
  GI50: 37.1 µM
  TGI: > 100 µM
OVCAR-3 ovarian
  GI50: 18.4 µM
  TGI: 49.7 µM
OVCAR-4 ovarian
  GI50: 5.04 µM
  TGI: 45.3 µM
OVCAR-5 ovarian
  GI50: 26.8 µM
  TGI: > 100 µM
OVCAR-8 ovarian
  GI50: 11.4 µM
  TGI: > 100 µM
PC-3 prostate
  GI50: 12 µM
  TGI: > 100 µM
RPMI-8226 leukemia
  GI50: 48.6 µM
  TGI: > 100 µM
RXF 393 renal
  GI50: 24.6 µM
  TGI: > 100 µM
SF-268 CNS
  GI50: 12.6 µM
  TGI: 58.5 µM
SF-295 CNS
  GI50: 12.6 µM
  TGI: 76.2 µM
SF-539 CNS
  GI50: 17.9 µM
  TGI: 40.5 µM
SK-MEL-2 melanoma
  GI50: 22.9 µM
  TGI: 93.5 µM
SK-MEL-28 melanoma
  GI50: 49.5 µM
  TGI: > 100 µM
SK-MEL-5 melanoma
  GI50: 51.3 µM
  TGI: > 100 µM
SK-OV-3 ovarian
  GI50: 62.7 µM
  TGI: > 100 µM
SN12C renal
  GI50: 4.53 µM
  TGI: 25.1 µM
SNB-19 CNS
  GI50: 23.4 µM
  TGI: > 100 µM
SNB-75 CNS
  GI50: 10.3 µM
  TGI: 48.8 µM
SR leukemia
  GI50: 10.8 µM
  TGI: 32.8 µM
SW-620 colon
  GI50: 18.9 µM
  TGI: > 100 µM
T-47D breast
  GI50: 67.3 µM
  TGI: > 100 µM
TK-10 renal
  GI50: 22.3 µM
  TGI: 66 µM
U251 CNS
  GI50: 2.46 µM
  TGI: 10.3 µM
UACC-257 melanoma
  GI50: > 100 µM
  TGI: > 100 µM
UACC-62 melanoma
  GI50: 12.4 µM
  TGI: 60.2 µM
UO-31 renal
  GI50: 38.1 µM
  TGI: > 100 µM

— PubChem BioAssay (NCI)
